Reference: EP0139358B1, “N6-substituted diarylalkyl adenosines, processes for their production and pharmaceutical compositions comprising the same” (priority 1983, dated 1985)
Like-named read-outs stand apart in the source and are kept apart here.

What was measured:
Swiss-Webster male mice [1] = test: Mouse Activity and Screen Test (MAST): inhibition of spontaneous locomotion (LI); format: in vivo; conditions: for minimal effective dose: Mus musculus, ip, read-out: MAST LI LAD; for Inhibition of mouse locomotor activity: one hour prior to testing, vs vehicle
Experimental: (§1) Treatments are administered intraperitoneally one hour prior to testing. […] Compounds are dissolved or suspended in 0.2% Methocel. Control animals are injected with Methocel.
Immediately following the screen test, the final phase of testing is initiated by placing each group of three mice in one actophotometer (Life Sciences, 22, 1067-1076, 1978). The actophotometer consists of a cylindrical chamber whose center is occupied by another cylinder which contains the illumination for six photocells located on the perimeter of the chamber. Six light-beam interruptions equal one count. Locomotor activity is recorded by computer at ten minute intervals for 60 minutes. […]

Swiss-Webster male mice [2] = test: Mouse Activity and Screen Test (MAST): screen test (ST); format: in vivo; conditions: for MAST ST LAD: lowest dose at which an A rating (60-100%) is achieved, screen test, intraperitoneally; for Inhibition of screen test failure: percent of mice falling off the screen
Experimental: as §1
The compounds are identified in the Examples.

[3] = tested on: Long-Evans rats or squirrel-monkeys; test: Antipsychotic lever-push shock avoidance protocol (SIDR); format: in vivo; conditions: Rattus norvegicus; shock avoidance lever pushing; read-out: SIDR ED50
Experimental: Representative compounds of the invention (identified in the Examples) were also tested for antipsychotic activity according to the following protocol (SIDR). […] Mature male Long-Evans rats or squirrel-monkeys are conditioned to push a lever in order to avoid a painful electric footshock. If the animal fails to push the lever, he receives a shock every ten seconds until the lever is pushed. Shocks can be terminated by pushing the lever. Thereafter, as long as the lever is pushed at least once every 20 seconds, there will be no shock. Each animal acts as its own control; one weekly session is used to establish baseline behavior and another session later in the week is used as a drug session. Once patterns of avoidance are established, the effects of standard and unknown compounds are studied. All events are electronically programmed and the response to these events counted or used as feedback to the program.

conscious rat = test: Antihypertensive evaluation (AHP3): aortic blood pressure and heart rate; format: in vivo; conditions: conscious rat; for minimal effective dose: lowest dose tested at which a >10% reduction in blood pressure for four consecutive hours is achieved, read-out: AHP3 BP LAD
Source text: […] EVALUATION (AHP3)
This test procedure is described in the following paragraphs.
A Method for the Direct Monitoring of Aortic Blood Pressure and Heart Rate from Conscious Rats
The continuous monitoring of pulsatile blood pressure (BP) from unrestrained conscious rats surgically equipped with polyethylene cannulas was accomplished by means of a computer assisted data capture scheme (CADCS). The absic elements of the methodology are the cannulation procedure and the CADCS.
Cannulation Procedure: Rats were anesthetized with Telazol (1:1 tiletamine HCI and zolazepam HCI); 20-40 mg/kg IM and the descending aorta exposed via a midline incision. Cannulas fabricated from polyethylene tubing were inserted into the aorta via an undersized puncture hole below the renal arteries. The puncture hole was made by a 23 G disposable needle with a section of the aorta clamped off above and below the puncture site. The cannulas, consisting of a PE100 (0.86 mm ID) body and a PE50 (0.58 mm ID) tip, were attached to a trocar, inserted through the psoas muscle, and passed subcutaneously along the midline of the back and externalized between the ears. The cannulas were anchored to the psoas muscle and between the scalulae (3-0 green braided suture). The midline incision was closed in two steps (muscle first, skin second) using continuous over-and over sutures (4-0 chronic). Each rat was then given penicillin 30,000 units subcutaneously (Penicillin G Procaine Sterile Suspension).
The rats were fitted with a harness-spring-swivel assembly designed to protect the cannula and to provide the rat relative freedom of movement. The harnesses were fabricated from nylon hook and loop tape cemented to a metal plate to which spring wires (18-8 stainless steel), were attached to brass swivels. Each polyethylene cannula was channeled through a spring and connected through a swivel to a pressure transducer (Model P23Gb; Statham Instruments; Hato Rey, Puerto Rico) and an infusion pump (Sage model 234-7; Orion Research, Cambridge, Ma) by means of PE100 tubing. While on test, each rat received a continuous slow infusion of heparinized saline solution (approximately 400 I or 40 units of heparin per 24 hour period) to prevent clot formation. Additional "flushes" of the cannula with heparinized saline were carried out when the aortic pulse pressure (systolic minus diastolic) was less than 25 mm Hg.
CADCS: The pulsatile blood pressure and heart rate of each of 32 rats was monitored every minute by means of two in-laboratory microcomputers communicating directly with a data concentrator computer. The data were first stored on the data concentrator disk and then transferred to a magnetic tape for analysis and report generation by the main research computer. The overall scheme involved modulating the primary signal from the pressure transducer, generating the primary data set of the one-minute values for systolic, diastolic, and mean blood pressures and heart rate by the in-lab microcomputer and the storage, analysis, and report generation by the main research computer.
The transducers were connected to analog signal conditioning modules. The modules providing a regulated excitation voltage for the transducers, amplification as required to interface the microprocessors and an active low pass filter to compensate for the pressure wave form distortion produced by the flexible, fluid filled, narrow cannula.
The microcomputers (one for each of two groups of 16 rats) were connected to the input components through the module interface units, an analog-to-digital converter for the pressure wave form signal and the digital inputs for the dose and event marker switches. The microcomputer controlled the sequential acquisition of data from the modular interface units through an internal synchronous time-of-day clock/ time base generator. […]

rat heart = test: Coronary blood flow (PCS2A): isolated perfused heart; conditions: isolated perfused rat heart
Experimental: CORONARY BLOOD FLOW (PCS2A)
Male rats (400-600 gms) are pretreated with Na haparin 2000 units and anesthetized with Na pentobarbital (50 mg/kg) administered intraperitoneally. Once anesthetized, the rat heart is rapidly excised, the ascending aorta fitted to the aortic perfusion cannula, and […] with a ligature. The coronary arteries are perfused initially at a rate of about 15 ml/min for two to three minutes, afterwhich they are perfused at constant pressure of 70 mm Hg and temperature of 37°C. The electrocardiogram (ECG) is recorded using two platinum electrodes positioned at the base and apex of the left ventricle. A second heart is excised, cannulated, and perfused by the same method outlined above. Both hearts are tested in parallel. The standard physiological salt solution (PSS) is a modified Krebs-Hanseleit bicarbonate buffer of the following composition in mM concentration: NaCI, 127; NaHC03, 25; dextrose, 5.5; Na Pyruvate, 2.0: KCI, 4.7; MgS04, 1.1; KH 2P04, 1.2; CaCl2·2H2O, 2.5; CaNa2 EDTA, 0.05.
A 30-minute stabilization period is observed before starting the test protocol.
The microprocessor control system is a servo mechanism which permits coronary perfusion pressure (CPP) and drug concentration to be maintained constant independent of changes in coronary flow. The level at which CPP and drug concentration are maintained can be changed by commands communicated through the microprocessor keyboard. Dose-response curves are carried out by perfusing concentrated drug solution (DC) at rates proportional to total coronary flow (CFT). Drug concentrations are increased by proportionate increases in the rate of DC infusion over CFT via the microprocessor keyboard. The proportional flow rates for DC:CFT is about .0002:1 at the low end and .02: at the high end of the dose-response curve. Dose-response curves encompassing at least two log doses are carried out by preparing two DCs with a concentration difference of 1:100. Following the first dose range of two log doses, the DC are switched, proportional pumping rate adjusted, and the dose-response curve continued for another two log doses. The standard dose-response curve is carried out in one-half log dose increments starting at a subthreshold dose and ending at a dose which produces near maximal response in activity. Standard reference compounds are tested over the range of 10-^9 to 10-^6M.
Measurements are for heart rate (HR) and coronary flow (CF). Units are: HR, beats/minute (bpm) and CF, milliliters/minute (ml/min). HR is calculated from the ECG strip chart recording and CF is calculated by recording analog outputs from pumps 1 and 2. Outputs from pump #1 = CFT and the output from pump #2 = CF for heart B (CFg). CF for heart A (CFA) is calculated (CFT - CFB = CFA).
Using the above technique, the effects of the compound of Examples 1 and 2 are as follows: […]

male Swiss-Webster mice = test: Analgesic evaluation: antiwrithing (AW) test, acetic acid; format: in vivo; conditions: Mus musculus, sc; subcutaneously, 20 minutes before acetic acid; dose to suppress writhing by 50%; read-out: AW ED50
Experimental: The antiwrithing (AW) test provides preliminary assessment of compounds with potential analgesic activity. The test is performed in male Swiss-Webster mice. Compounds are administered subcutaneously in aqueous 0.2% methylcellulose or other appropriate vehicles in volumes of 10 ml/kg. Dosages represent activity moiety.
Acetic acid (0.6%, 10 ml/kg) is injected intraperitroneally 20 minutes after administration of the adenosine agonist. Writhing movements are counted for five minutes starting seven minutes after the acetic acid injection. Writhing is defined as abdominal constriction and stretching of the body and hind legs with concave arching of the back. […] EDso values are calculated by nonlinear regression analysis.

[4] = coronary flow, read-out: PCS2A CF ED50
[5] = heart rate, read-out: PCS2A HR ED50

Question: Which minimal effective dose (Swiss-Webster male mice [1]) does the source give for `CC(CNc1ncnc2c1ncn2[C@@H]1O[C@H](CO)[C@@H](O)[C@H]1O)(c1ccccc1)c1ccccc1` [Example 8, N^6-(2,2-Diphenylpropyl)adenosine] here?
Answer: The minimal effective dose was 10 mg/kg.

Question: And the “MAST ST LAD” value (Swiss-Webster male mice [2])?
Answer: Its value is greater than 100 mg/kg.

Question: And the ED50 [3]?
Answer: The ED50 was 5.6 mg/kg.

Question: What about the minimal effective dose (conscious rat) of the same molecule?
Answer: Its minimal effective dose is 10 mg/kg.

Question: And the EC50 (rat heart; [4])?
Answer: Its EC50 is less than 0.1 µM.

Question: And the EC50 (rat heart; [5])?
Answer: The EC50 was 3 µM.

Question: And the ED50 (male Swiss-Webster mice)?
Answer: The ED50 was 10.6 mg/kg.

Question: Which “Inhibition of mouse locomotor activity” value (Swiss-Webster male mice [1]; 10 mg/kg intraperitoneally) does the source give for `Nc1nc(NCC(c2ccccc2)c2ccccc2)c2ncn([C@@H]3O[C@H](CO)[C@@H](O)[C@H]3O)c2n1` [Example 4, N^6-(2,2-Diphenylethyl)-2-aminoadenosine] here?
Answer: The value was 64%.

Question: And the “Inhibition of mouse locomotor activity” value (Swiss-Webster male mice [1]; 30 mg/kg intraperitoneally)?
Answer: Its value is 87%.

Question: What about the “Inhibition of mouse locomotor activity” value (Swiss-Webster male mice [1]; 100 mg/kg intraperitoneally) of the same molecule?
Answer: Its value is 95%.

Question: And the minimal effective dose (Swiss-Webster male mice [1])?
Answer: The minimal effective dose was 10 mg/kg.

Question: What about the “Inhibition of screen test failure” value (Swiss-Webster male mice [2]; 10 mg/kg intraperitoneally) of the same molecule?
Answer: The value was 0%.

Question: And the “Inhibition of screen test failure” value (Swiss-Webster male mice [2]; 30 mg/kg intraperitoneally)?
Answer: The value was 11%.

Question: What about the “Inhibition of screen test failure” value (Swiss-Webster male mice [2]; 100 mg/kg intraperitoneally) of the same molecule?
Answer: The value was 22%.

Question: What about the “MAST ST LAD” value (Swiss-Webster male mice [2]) of the same molecule?
Answer: Its value is greater than 100 mg/kg.

Question: What about the ED50 [3] of the same molecule?
Answer: The ED50 was 3.8 mg/kg.

Question: What about the minimal effective dose (conscious rat) of the same molecule?
Answer: Its minimal effective dose is 30 mg/kg.

Question: And the EC50 (rat heart; [4])?
Answer: Its EC50 is 1 µM.

Question: And the EC50 (rat heart; [5])?
Answer: The EC50 was greater than 0.1 µM.

Question: Which minimal effective dose (Swiss-Webster male mice [1]) does the source give for `CC(=O)OC[C@H]1O[C@@H](n2cnc3c(NCC(c4ccccc4)c4ccccc4)ncnc32)[C@H](OC(C)=O)[C@@H]1OC(C)=O` [Example 25, 2',3',5'-Tri-O-acetyl-N^6-(2,2-diphenylethyl)adenosine] here?
Answer: The minimal effective dose was 3 mg/kg.

Question: What about the “MAST ST LAD” value (Swiss-Webster male mice [2]) of the same molecule?
Answer: The value was greater than 100 mg/kg.

Question: And the ED50 [3]?
Answer: The ED50 was 11.3 mg/kg.

Question: And the minimal effective dose (conscious rat)?
Answer: Its minimal effective dose is 10 mg/kg.

Question: What about the EC50 (rat heart; [4]) of the same molecule?
Answer: The EC50 was 1 µM.

Question: And the EC50 (rat heart; [5])?
Answer: Its EC50 is 2.2 µM.

Question: Which results are given for `OC[C@H]1O[C@@H](n2cnc3c(NCC(c4ccccc4)c4ccccc4)nc(Cl)nc32)[C@H](O)[C@@H]1O` [Example 3, N^6-(2,2-Dipenylethyl)-2-chloroadenosine]?
Answer: Inhibition of mouse locomotor activity (Swiss-Webster male mice [1]; 10 mg/kg intraperitoneally): 56%; Inhibition of mouse locomotor activity (Swiss-Webster male mice [1]; 30 mg/kg intraperitoneally): 85%; Inhibition of mouse locomotor activity (Swiss-Webster male mice [1]; 100 mg/kg intraperitoneally): 92%; minimal effective dose (Swiss-Webster male mice [1]): 10 mg/kg; Inhibition of screen test failure (Swiss-Webster male mice [2]; 10 mg/kg intraperitoneally): 0%; Inhibition of screen test failure (Swiss-Webster male mice [2]; 30 mg/kg intraperitoneally): 11%; Inhibition of screen test failure (Swiss-Webster male mice [2]; 100 mg/kg intraperitoneally): 44%; MAST ST LAD (Swiss-Webster male mice [2]): >100 mg/kg; ED50 [3]: 9.6 mg/kg; Mμ.c. ↓ (conscious rat; 10 mg/kg, decrease in mean arterial blood pressure): 15%; HR ↑ (conscious rat; 10 mg/kg, heart rate increase): <20%; minimal effective dose (conscious rat): 10 mg/kg; EC50 (rat heart; [4]): 30 µM; EC50 (rat heart; [5]): > 30 µM
